# Reference: US20190346463A1, “COMPOSITIONS AND METHOD FOR DETERMINING INSULIN RESISTANCE USING NON-ESTERIFIED FATTY ACID ANALYSIS” (The Penn State Research Foundation, priority 2016, published 2019)
# Assay: compartmental model of NEFA trafficking in response to a glucose challenge (frequently sampled intravenous glucose tolerance test, FAs measured by GC-MS)
# Assay type: in vivo
# Conditions: greater in IR (p=0.05); mean [95% CI] 55% [14, 76]
# From the text: In general the present disclosure involves analysis of NEFA trafficking by determining kinetic parameters that include, but are not necessarily limited to, the fractional rate of NEFA appearance (Ra), the rate of NEFA disappearance (kNEFA), threshold for glucose-induced suppression (tG), and IC50 for glucose inhibition of NEFA production (gIC50). Those skilled in the art will recognize that each of these parameters is known and can be determined using a variety of established approaches. In this regard the presence or absence, qualitative and quantitative amounts of, and kinetic parameters for one or more NEFAs in a biological sample can be sample determined using, for example, chromatographic methods, such as column chromatography, including High Performance Liquid Chromatography (HPLC) and gas chromatography, and spectroscopy methods including mass spectrometry, nuclear magnetic resonance spectroscopy, infrared spectroscopy, positron emission tomography and other approaches, such as those described in “A novel minimal model to describe NEFA kinetics following an intravenous glucose challenge” Ray C. Boston, Peter J. Moate, American Journal of Physiology—Regulatory, Integrative and Comparative Physiology Apr 2008, 294 (4) R1140-R1147. […]
# This Example reflects an ancillary study. […] Six FAs were measured by GC-MS (myristic, palmitic, palmitoleic, stearic, oleic, and linoleic acids). […]
smiles,measurement,value
"CCCCCCCCCCCCCCCCCC(=O)O [stearate, stearic acid]",kNEFA in IR versus healthy subjects,55%
